Read-outs that look alike come from different tables or passages of the source.
What was measured:
ASIC1a [1] = target: T1, ASIC1a (Homo sapiens, UniProt P78348); test: Calcium-imaging (FLIPR) of MES-induced calcium response in ASIC1a expressing HEK293 cells; type: cell-based; parameters: host or cells: HEK293
T1 sequence (P78348 1-528): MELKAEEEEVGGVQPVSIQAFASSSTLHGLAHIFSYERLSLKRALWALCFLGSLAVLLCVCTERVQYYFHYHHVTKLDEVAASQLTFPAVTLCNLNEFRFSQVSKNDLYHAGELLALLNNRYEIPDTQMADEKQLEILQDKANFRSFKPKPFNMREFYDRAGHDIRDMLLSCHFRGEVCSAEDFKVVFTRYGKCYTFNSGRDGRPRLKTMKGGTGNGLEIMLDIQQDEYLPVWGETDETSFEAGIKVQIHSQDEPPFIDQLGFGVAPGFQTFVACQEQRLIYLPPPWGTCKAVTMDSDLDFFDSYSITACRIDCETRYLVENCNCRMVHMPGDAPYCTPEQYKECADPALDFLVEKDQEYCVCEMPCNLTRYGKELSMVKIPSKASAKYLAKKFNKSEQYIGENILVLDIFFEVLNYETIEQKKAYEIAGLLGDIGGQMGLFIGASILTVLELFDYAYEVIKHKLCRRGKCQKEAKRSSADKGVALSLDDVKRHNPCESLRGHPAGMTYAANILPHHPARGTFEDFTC
Protocol: Identification of ASIC Antagonists Using Calcium-Imaging
ASIC1a expressing HEK293 cells are grown in culture medium (DMEM with 10% FBS), in polystyrene culture flasks (175 mm 2) at 37° C. in a humidified atmosphere of 5% CO2. Confluency of cells should be 80-90% on day of plating. Cells are rinsed with 10 ml of PBS and cells are re-suspended by addition of culture medium and trituration with a 25 ml pipette.
The cells are seeded at a density of approximately 1×10^6 cells/ml (100 μl/well) in black-walled, clear bottom, 96-well plates pre-treated with 10 mg/l poly-D-lysin (75 μl/well for ≧30 min). Plated cells are allowed to proliferate for 24 h before loading with dye.
Loading with Fluorescent Calcium Dye Fluo-4/AM
Fluo-4/AM (1 mg, Molecular Probes) is dissolved in 912 μl DMSO. The Fluo-4/AM stock solution (1 mM) is diluted with culture medium to a final concentration of 2 μM (loading solution).
The culture medium is aspirated from the wells, and 50 μl of the Fluo-4/AM loading solution is added to each well. The cells are incubated at 37° C. for 30 min.
After the loading period, the loading solution is aspirated and the cells are washed twice with 100 μl modified Assay Buffer (145 mM NaCl, 5 mM KCl, 5 mM CaCl2, 1 mM MgCl2, 10 mM HEPES, pH 7.4) to remove extracellular dye. Following the second wash, 100 μl modified Assay Buffer is added to each well and the fluorescence is measured in FLIPR™ or FlexStation™ (Molecular Devices, USA), or any other suitable equipment known to the skilled in the art.
Temperature: Room temperature (20-22° C.)
First addition: 50 μl test solution at a rate of 30 μl/sec and a starting height of […]
Second addition: 50 μl MES solution (20 mM, 5 mM final concentration) at a rate of 35 μl/sec and a starting height of 150 μl.
Reading intervals: pre-incubation—10 sec×7 and 3 sec×3 antagonist phase—3 sec×17 and 10 sec×12
Addition plates (compound test plate and MES plate) are placed on the right and left positions in the FLIPR tray, respectively. Cell plates are placed in the middle position and the ASIC1a program is effectuated. FLIPR will then take the appropriate measurements in accordance with the interval settings above. Fluorescence obtained after stimulation is corrected for the mean basal fluorescence (in modified Assay Buffer).
Hit Confirmation and Characterization of Active Substances
The MES-induced peak calcium response, in the presence of test substance, is expressed relatively to the MES response alone. Test substances that block the MES-induced calcium response are re-tested in triplicates. […]

ASIC1a [2] = target: T1, ASIC1a; test: Two-electrode voltage clamp of acid-induced currents in Xenopus laevis oocytes; type: cell-based; parameters: expressed in transfected cells; host or cells: Xenopus laevis oocytes, nuclear microinjection of an expression vector such as pCDNA3; details: 50 μM, Xenopus oocytes; read-out: % inh. at 50 μM (Xo)
Protocol: Screening and Bioanalysis of ASIC Antagonists in Xenopus laevis oocytes
This example describes the in vitro assessment of the activity of the compounds of the present invention.
Two-electrode voltage clamp electrophysiological assays in Xenopus laevis oocytes expressing gated ion channels are performed as follows:
Oocytes are surgically removed from adult Xenopus laevis and treated for 2 h at room temperature with 1 mg/ml type I collagenase (Sigma) in Barth's solution under mild agitation. Selected oocytes at stage IV-V are defolliculated manually before nuclear microinjection of 2.5-5 ng of a suitable expression vector, such as pCDNA3, comprising the nucleotide sequence encoding a gated ion channel subunit protein. In such an experiment, the oocytes express homomultimeric proton-gated ion channels on their surface. In an alternate experiment, one, two, three or more vectors comprising the coding sequences for distinct gated ion channel subunits are co-injected in the oocyte nuclei. In the latter case, oocytes express heteromultimeric proton-gated ion channels. For example, ASIC2a and/or ASIC3 subunits in pcDNA3 vector are co-injected at a 1:1 cDNA ratio. After 2-4 days of expression at 19° C. in Barth's solution containing […] gentamicin and 1.8 mM CaCl2, gated ion channels are activated by applying an acidic solution (pH<7) and currents are recorded in a two electrode voltage-clamp configuration, using an OC-725B amplifier (Warner Instruments). Currents are acquired and digitized at 500 Hz on an Apple Imac G3 computer with an A/D NB-MIO-16XL interface (National Instruments) and recorded traces are post-filtered at 100 Hz in Axograph (Axon Instruments) (Neher, E. and Sakmann, B. (1976) Nature 260:799-802). Once impaled with the microelectrodes, oocytes are continuously superfused at 10-12 ml/min with a modified Ringer's solution containing 97 mM NaCl, 2 mM KCl, 1.8 mM CaCl2, and 10 mM HEPES brought to pH 7.4 with NaOH (Control Ringer). Test Ringer solution is prepared by replacing HEPES with MES and adjusting the pH to the desired acidic value. Compounds of the present invention are prepared in both the Control and Test Ringer solutions and applied to oocytes at room temperature through a computer-controlled switching valve system. Osmolarity of all solutions is adjusted to 235 mOsm with choline chloride. Similarly, recordings can also be acquired in an automated multichannel oocytes system as the OpusExpress™ (Molecular Devices, Sunnyvale, USA).
FIGS. 1A and 2A illustrate the inhibitory effects of Compounds 12 and 44 on acid-induced activation of recombinant homomeric hASIC1a channels. FIGS. 1A and 2A show the dose-dependent inhibition of the acid-induced hASIC1a currents recorded from Xenopus laevis oocytes using the two-electrode voltage clamp method (as described in this example) in the absence or presence of increasing concentration of the compounds.

[3] = MES-induced calcium response, ASIC1a expressing HEK293 cells, read-out: IC50 (FLIPR)

## CCN1CCc2c(-c3ccccc3OC)cc(C#N)c(N)c2C1 [Compound 45]
ASIC1a [1]; [3]
  IC50: 10 to 20 µM
ASIC1a [2]
  inhibition at 50 µM: > 50%

## CCN1CCc2c(-c3cc(C)cc(C)c3)cc(C#N)c(N)c2C1 [Compound 48]
ASIC1a [1]
  IC50: < 10 µM
ASIC1a [2]
  inhibition at 50 µM: > 50%

## CCN1CCc2c(-c3ccccc3)cc(C#N)c(N(C)C)c2C1 [Compound 50]
ASIC1a [1]; [3]
  IC50: 10 to 20 µM
ASIC1a [2]
  inhibition at 50 µM: > 50%

From patent US20080004282A1, “Compositions and methods for modulating gated ion channels” (PainCeptor Pharma Corporation, priority 2006, published 2008)
